Our source for the Ki values is ChEMBL document CHEMBL1124694, “C2,N6-disubstituted adenosines: synthesis and structure-activity relationships” (J Med Chem, 1989).

The target in one assay is T1, Adenosine receptor A1 (Rattus norvegicus, UniProt P25099).
T1 sequence (P25099 whole entry): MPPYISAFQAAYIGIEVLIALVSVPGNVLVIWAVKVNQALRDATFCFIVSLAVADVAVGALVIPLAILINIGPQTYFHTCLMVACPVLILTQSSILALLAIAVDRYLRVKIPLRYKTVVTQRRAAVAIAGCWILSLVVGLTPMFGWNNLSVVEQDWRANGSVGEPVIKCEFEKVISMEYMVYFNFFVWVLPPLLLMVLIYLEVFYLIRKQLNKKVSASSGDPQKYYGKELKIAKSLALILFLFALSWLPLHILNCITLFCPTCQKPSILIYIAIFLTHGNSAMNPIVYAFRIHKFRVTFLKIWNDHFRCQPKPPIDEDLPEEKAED

Assay [1] deals with T2, Adenosine A2 receptor (Rattus norvegicus, UniProt P29276+P30543).
Assay [2] addresses T2, Adenosine A2 receptor. The assay can be described thus: Inhibition of [3H]NECA binding to Adenosine A2 receptor of rat striatal membranes. Format: cell membranes, Membrane.

In the case of `OC[C@H]1O[C@@H](n2cnc3c(NC4CC4)ncnc32)[C@H](O)[C@@H]1O`, the Ki – broadly, the equilibrium dissociation constant of an inhibitor or competing ligand from its target – on Adenosine receptor A1 is 3.2 nM. As for `OC[C@H]1O[C@@H](n2cnc3c(NCc4cccc5ccccc45)nc(NC4CCCCC4)nc32)[C@H](O)[C@@H]1O`, the Ki was 45000 nM on Adenosine receptor A1 and 10300 nM at Adenosine A2 receptor [1]. Taken in the same sequence, the figures for `OC[C@H]1OC(n2cnc3c(NCC(c4ccccc4)c4ccccc4)nc(Nc4ccccc4)nc32)[C@H](O)[C@@H]1O` (stereo not given in full) were 2700 nM and 650 nM. Regarding `OC[C@H]1OC(n2cnc3c(NCc4cccc5ccccc45)nc(Nc4ccccc4)nc32)[C@H](O)[C@@H]1O` (stereo not given in full), the results for the Ki on Adenosine receptor A1 and on Adenosine A2 receptor [1] were 560 nM and 230 nM, respectively. `CC(Cc1ccccc1)Nc1nc(Nc2ccccc2)nc2c1ncn2C1O[C@H](CO)[C@@H](O)[C@H]1O` (stereo not given in full): the Ki came to 152 nM at Adenosine receptor A1 and 240 nM on Adenosine A2 receptor [1]. As to `COc1cc(OC)cc(C(CNc2nc(Nc3ccccc3)nc3c2ncn3C2O[C@H](CO)[C@@H](O)[C@H]2O)c2ccccc2)c1` (stereo not given in full), the values for the Ki at Adenosine receptor A1 and at Adenosine A2 receptor [1] were 9000 nM and 470 nM, respectively. `CC(O)CNc1ncnc2c1ncn2C1O[C@H](CO)[C@@H](O)[C@H]1O` (stereo not given in full): the Ki on Adenosine receptor A1 was 5 nM; on Adenosine A2 receptor [1], 9300 nM.

Consider `OC[C@H]1OC(n2cnc3c(NC4CC4)nc(Nc4ccccc4)nc32)[C@H](O)[C@@H]1O` (stereo not given in full), for which the Ki at Adenosine receptor A1 worked out at 68 nM; at Adenosine A2 receptor [1], 960 nM. Turning to `OC[C@H]1OC(n2cnc3c(NCC(c4ccccc4)c4ccccc4)nc(Sc4ccccc4)nc32)[C@H](O)[C@@H]1O` (stereo not given in full), the Ki on Adenosine receptor A1 is 840 nM; at Adenosine A2 receptor [1] it was 800 nM.

For the molecule `CC(Cc1ccccc1)Nc1nc(N)nc2c1ncn2C1O[C@H](CO)[C@@H](O)[C@H]1O` (stereo not given in full), the Ki on Adenosine receptor A1 turned out to be 19.2 nM; on Adenosine A2 receptor [1], 1530 nM.

Consider `CC(Cc1ccccc1)Nc1nc(Sc2ccccc2)nc2c1ncn2C1O[C@H](CO)[C@@H](O)[C@H]1O` (stereo not given in full), for which the Ki came out at 210 nM at Adenosine receptor A1 and 1000 nM on Adenosine A2 receptor [1]. For `Nc1nc(S(=O)(=O)c2ccccc2)nc2c1ncn2C1O[C@H](CO)[C@@H](O)[C@H]1O` (stereo not given in full), the Ki turned out to be 1230 nM on Adenosine A2 receptor [2] and 2600 nM at Adenosine receptor A1. Consider `OC[C@H]1OC(n2cnc3c(NC4CC5CCC4C5)nc(Nc4ccccc4)nc32)[C@H](O)[C@@H]1O` (stereo not given in full), for which the inhibitory constant (Ki) at Adenosine receptor A1 is 7.7 nM; at Adenosine A2 receptor [1] it was 472 nM. Take `Nc1nc(NC2CCCC2)c2ncn(C3O[C@H](CO)[C@@H](O)[C@H]3O)c2n1` (stereo not given in full): the Ki at Adenosine receptor A1 was found to be 8.3 nM; on Adenosine A2 receptor [1], 6100 nM.

On to `OC[C@H]1OC(n2cnc3c(NCc4cccc5ccccc45)nc(Sc4ccccc4)nc32)[C@H](O)[C@@H]1O` (stereo not given in full), for which the Ki at Adenosine receptor A1 amounted to 1470 nM; at Adenosine A2 receptor [1] it was 610 nM. The matching figures for `OC[C@H]1OC(n2cnc3c(NCC4c5ccccc5-c5ccccc54)nc(Nc4ccccc4)nc32)[C@H](O)[C@@H]1O` (stereo not given in full): 8900 nM and 2100 nM. `OC[C@H]1OC(n2cnc3c(NCc4ccccc4)nc(Nc4ccccc4)nc32)[C@H](O)[C@@H]1O` (stereo not given in full): the Ki was 1630 nM at Adenosine receptor A1 and 7100 nM at Adenosine A2 receptor [1]. `CC(O)CNc1nc(Nc2ccccc2)nc2c1ncn2C1O[C@H](CO)[C@@H](O)[C@H]1O` (stereo not given in full): the figures for the Ki on Adenosine receptor A1 and at Adenosine A2 receptor [1] were 50 nM and 1700 nM, respectively. In the case of `O=S(=O)(c1ccccc1)c1nc(NCc2cccc3ccccc23)c2ncn(C3O[C@H](CO)[C@@H](O)[C@H]3O)c2n1` (stereo not given in full), the Ki worked out at 2000 nM on Adenosine receptor A1 and 270 nM at Adenosine A2 receptor [1]. Consider `COc1cc(OC)cc(C(CNc2nc(Nc3ccccc3)nc3c2ncn3C2O[C@H](CO)[C@@H](O)[C@H]2O)c2ccccc2C)c1` (stereo not given in full), for which the figures for the Ki at Adenosine receptor A1 and on Adenosine A2 receptor [1] were 10300 nM and 340 nM, respectively. With `Nc1nc(NCC2c3ccccc3-c3ccccc32)c2ncn(C3O[C@H](CO)[C@@H](O)[C@H]3O)c2n1` (stereo not given in full), the values for the Ki on Adenosine receptor A1 and on Adenosine A2 receptor [1] were 18.5 nM and 22 nM, respectively. With `Nc1nc(NCC(c2ccccc2)c2ccccc2)c2ncn(C3O[C@H](CO)[C@@H](O)[C@H]3O)c2n1` (stereo not given in full), the results for the Ki on Adenosine receptor A1 and on Adenosine A2 receptor [1] were 61 nM and 135 nM, respectively. `Nc1nc(Sc2ccccc2)nc2c1ncn2C1O[C@H](CO)[C@@H](O)[C@H]1O` (stereo not given in full): the Ki at Adenosine A2 receptor [2] came to 2000 nM; on Adenosine receptor A1, 2200 nM. Take `COc1ccc(-c2nc(N)c3ncn(C4O[C@H](CO)[C@@H](O)[C@H]4O)c3n2)cc1` (stereo not given in full): the results for the Ki at Adenosine A2 receptor [2] and at Adenosine receptor A1 were 600 nM and 1320 nM, respectively. `OC[C@H]1OC(n2cnc3c(NC4CCCC4)nc(Nc4ccccc4)nc32)[C@H](O)[C@@H]1O` (stereo not given in full): the Ki at Adenosine receptor A1 came out at 12.4 nM; at Adenosine A2 receptor [1], 144 nM. Taken in the same sequence, the figures for `O=S(=O)(c1ccccc1)c1nc(NC2CCCC2)c2ncn(C3O[C@H](CO)[C@@H](O)[C@H]3O)c2n1` (stereo not given in full) were 96 nM and 2300 nM.

In the case of `OC[C@H]1OC(n2cnc3c(NC4CCCC4)nc(Sc4ccccc4)nc32)[C@H](O)[C@@H]1O` (stereo not given in full), the Ki on Adenosine receptor A1 came to 37 nM; at Adenosine A2 receptor [1], 4000 nM. The matching figures for `OC[C@H]1OC(n2cnc3c(NN4CCCC4)nc(Nc4ccccc4)nc32)[C@H](O)[C@@H]1O` (stereo not given in full): 18400 nM and 58000 nM. As for `OC[C@H]1OC(n2cnc3c(NC4CCCCC4)nc(Sc4ccccc4)nc32)[C@H](O)[C@@H]1O` (stereo not given in full), the results for the Ki on Adenosine receptor A1 and on Adenosine A2 receptor [1] were 160 nM and 6700 nM, respectively. The matching figures for `OC[C@H]1OC(n2cnc3c(NCCc4ccccc4)nc(NCCc4ccccc4)nc32)[C@H](O)[C@@H]1O` (stereo not given in full): 1620 nM and 2000 nM. The matching figures for `O=S(=O)(c1ccccc1)c1nc(NC2CCCCC2)c2ncn(C3O[C@H](CO)[C@@H](O)[C@H]3O)c2n1` (stereo not given in full): 420 nM and 5100 nM. As to `OC[C@H]1OC(n2cnc3c(NCc4cccc5ccccc45)nc(F)nc32)[C@H](O)[C@@H]1O` (stereo not given in full), the values for the Ki on Adenosine receptor A1 and at Adenosine A2 receptor [1] were 18.1 nM and 14.9 nM, respectively. Regarding `OC[C@H]1OC(n2cnc3c(NC4CCCCC4)nc(Nc4ccccc4)nc32)[C@H](O)[C@@H]1O` (stereo not given in full), the Ki at Adenosine receptor A1 was 54 nM; at Adenosine A2 receptor [1], 450 nM.

As for `OC[C@H]1OC(n2cnc3c(NCc4cccc5ccccc45)nc(NCc4ccccc4)nc32)[C@H](O)[C@@H]1O` (stereo not given in full), the figures for the Ki on Adenosine receptor A1 and at Adenosine A2 receptor [1] were 530 nM and 350 nM, respectively. The matching figures for `Nc1nc(NC2CCCCC2)c2ncn(C3O[C@H](CO)[C@@H](O)[C@H]3O)c2n1` (stereo not given in full): 19.3 nM and 3500 nM. Take `Nc1nc(=O)[nH]c2c1ncn2[C@@H]1O[C@H](CO)[C@@H](O)[C@H]1O` [ISOGUANOSINE]: on Adenosine A2 receptor [2], the Ki is on record as 330 nM.
